# Peptide text beside a SMILES is read from it. * marks the point of attachment. Cbz = O=C(OCc1ccccc1)*
# Columns and labels:
# Assay type in all cases: cell-based
# E-cadherin [1] = assay: MG132 treatment of PANC-1 cells stably expressing shCTRL or shPAK4, western blot for E-cadherin (normalized by Vinculin); details: specific concentrations of MG132 for 24 hours
# Method: (§1) Experiment Method: PANC-1 cells were treated with 20 μg/mL cycloheximide (CHX), harvested at designated time points, and detected by western blot for E-cadherin, ZEB1, and Vinculin antibodies (left side of FIG. 5A). Quantitative evaluation of E-cadherin and ZEB1 protein levels was performed (normalized by Vinculin, right side of FIG. 5A). SU.86.86 and PANC-1 cells were cultured overnight in 1% P/S/10% FBS/DMEM, then converted to DMEM without Ca2+, and cultured for a specific time. E-cadherin, ZEB1, and Vinculin were detected by western blot (top side of FIG. 5B). E-cadherin and ZEB1 protein levels were quantitatively assessed (normalized by Vinculin, bottom side of FIG. 5B). PANC-1 cells stably expressing shCTRL or shPAK4 were treated with specific concentrations of MG132 for 24 hours and then detected by western blot for E-cadherin, ZEB1, and Vinculin antibodies (left side of FIG. 5C). E-cadherin and ZEB1 protein levels were quantitatively assessed (normalized by Vinculin, right side of FIG. 5C), After PANC-1 cells stably expressing shCTRL or shPAK4 were cultured in a serum-free medium for a certain period of time, activated Cdc42 and Rac1 interacting with GST-PBD-agarose were harvested from whole cell proteins. The activity of Cdc42 and Rac1 was detected by western blot (FIG. 5D). […]
# E-cadherin [2] = assay: Cycloheximide treatment of PANC-1 shCTRL/shPAK4 cells, western blot for E-cadherin (normalized by Vinculin); details: 20 μg/mL cycloheximide
# Method: as §1
# ZEB1 = assay: Cycloheximide treatment of PANC-1 shCTRL/shPAK4 cells, western blot for ZEB1 (normalized by Vinculin); details: 20 μg/mL cycloheximide
# Method: as §1
# [3] = PANC-1 PAK4 knockdown (shPAK4) cells
# [4] = PANC-1 shCTRL cells, harvested at designated time points
Compound,amount of protein of E-cadherin (E-cadherin [1]; [3]),amount of protein of E-cadherin (E-cadherin [1]; PANC-1 shCTRL cells),E-cadherin expression (E-cadherin [2]; [3]),E-cadherin production (E-cadherin [2]; [4]),ZEB1 expression (ZEB1; [3]),ZEB1 production (ZEB1; [4])
CC(C)C[C@@H](C=O)NC(=O)[C@H](CC(C)C)NC(=O)[C@H](CC(C)C)NC(=O)OCc1ccccc1 [MG132] (Cbz-Leu-Leu-Leu-aldehyde),such a pattern was not observed,decreased in a concentration-dependent manner,–,–,–,–
"C[C@@H]1C[C@@H]([C@H](O)CC2CC(=O)NC(=O)C2)C(=O)[C@@H](C)C1 [cyclohexamide, cycloheximide]",–,–,remained the same,inhibited,significantly reduced,inhibited
